In general, Ki refers to a dissociation constant, usually derived from enzyme kinetics or from competition with a known ligand. High values mean a looser hold on the target, low ones a stronger hold on the target.

The target of the assay is T1, Adenosine receptor A1 (Bos taurus, UniProt P28190).
T1 sequence (P28190 whole entry): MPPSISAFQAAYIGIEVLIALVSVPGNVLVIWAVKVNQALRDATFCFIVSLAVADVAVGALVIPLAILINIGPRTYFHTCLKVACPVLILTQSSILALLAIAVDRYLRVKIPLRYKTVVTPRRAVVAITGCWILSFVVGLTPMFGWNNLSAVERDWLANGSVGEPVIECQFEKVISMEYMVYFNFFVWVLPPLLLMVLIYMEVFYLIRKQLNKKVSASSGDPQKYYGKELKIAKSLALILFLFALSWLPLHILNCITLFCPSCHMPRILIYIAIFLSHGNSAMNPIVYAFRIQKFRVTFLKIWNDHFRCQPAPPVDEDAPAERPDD
Put plainly: Compound was tested for binding affinity at Adenosine A1 receptor in bovine brain cortical membranes using [3H](R)-(-)-N6-(2-phenylisopropyl)adenosine (R-PIA) as radioligand. The format is cell membranes.
With `O=[N+]([O-])c1ccc(CNc2ncnc3c2nnn3Cc2ccccc2)cc1`, the Ki is above 10 µM.

In turn, `Cc1ccc(Nc2ncnc3c2nnn3Cc2ccccc2Cl)cc1` gave a Ki of 0.119 µM.

Take `c1ccc(CCn2nnc3c(NC4CCCC4)ncnc32)cc1`: the Ki was determined as 0.176 µM. This Ki and that of the molecule before are within 1.5-fold of each other.

The molecule `c1ccc(Cn2nnc3c(NCC4CCCCC4)ncnc32)cc1` returned a Ki of 2.79 µM. This Ki lies about 16-fold higher than the previous one.

The molecule `CC(Cc1ccccc1)Nc1ncnc2c1nnn2Cc1ccccc1` (centres undefined) had a Ki of 0.575 µM.

`O=[N+]([O-])c1ccc(CNc2ncnc3c2nnn3CCc2ccccc2)cc1` gave a Ki of 0.245 µM.

`c1ccc(Cn2nnc3c(NC4CCCC4)ncnc32)cc1` came in with a Ki of 0.127 µM.

`CC(Cc1ccccc1)Nc1ncnc2c1nnn2CCc1ccccc1` (centres undefined) yielded a Ki of 2.49 µM.

As for `O=[N+]([O-])c1ccc(CCNc2ncnc3c2nnn3Cc2ccccc2)cc1`, the Ki was above 10 µM.

The molecule `c1ccc(CCn2nnc3c(NC4CCCCC4)ncnc32)cc1` came in with a Ki of 0.216 µM.

In the case of `Nc1ccc(CCNc2ncnc3c2nnn3Cc2ccccc2)cc1`, the Ki was 1.54 µM. Compared with the last molecule, the Ki is about 7.1-fold higher.

With `Cc1ccc(Nc2ncnc3c2nnn3CCc2ccccc2)cc1`, the affinity corresponds to a Ki of 1.67 µM.

With `Cc1cccc(Nc2ncnc3c2nnn3Cc2ccccc2Cl)c1`, the Ki came out at 5.88 µM.

The molecule `Clc1ccccc1Cn1nnc2c(NNc3ccccc3)ncnc21` returned an inhibitory constant (Ki) above 10 µM.

As for `C[C@H](Cc1ccccc1)Nc1ncnc2c1nnn2Cc1ccccc1Cl`, the affinity, expressed as Ki, was 0.039 µM.

`Cc1cccc(Nc2ncnc3c2nnn3CCc2ccccc2)c1` registered a Ki of 4.38 µM.

Take `O=[N+]([O-])c1cccc(Nc2ncnc3c2nnn3Cc2ccccc2)c1`: the affinity corresponds to a Ki of 0.443 µM.

Consider `Clc1cccc(Nc2ncnc3c2nnn3CCc2ccccc2)c1`, for which the Ki was found to be 3.32 µM.

Turning to `Clc1ccccc1Cn1nnc2c(NC3CCCCC3)ncnc21`, the Ki is 0.043 µM.

The molecule `Clc1ccccc1Cn1nnc2c(NCC3CCCCC3)ncnc21` showed a Ki of 4.26 µM. Against the preceding molecule, the Ki is about 99-fold higher.

The molecule `Clc1ccccc1Cn1nnc2c(NC3CCCC3)ncnc21` showed a Ki of 0.021 µM.

Regarding `C[C@H](Cc1ccccc1)Nc1ncnc2c1nnn2Cc1ccccc1`, the affinity corresponds to a Ki of 0.274 µM.

`Cc1ccc(Nc2ncnc3c2nnn3Cc2ccccc2)cc1` returned a Ki of 0.502 µM.

With `O=[N+]([O-])c1ccc(CNc2ncnc3c2nnn3Cc2ccccc2Cl)cc1`, the Ki is above 10 µM.

`Nc1ccc(CNc2ncnc3c2nnn3Cc2ccccc2Cl)cc1` displayed an inhibition constant Ki above 10 µM.

Take `Nc1ccc(CNc2ncnc3c2nnn3Cc2ccccc2)cc1`: the Ki came out at 9.5 µM.

In turn, `Cc1cccc(Nc2ncnc3c2nnn3Cc2ccccc2)c1` came in with a Ki of 1.1 µM. Compared with the last molecule, the Ki is about 8.6-fold lower.

Molecule `CC(Nc1ncnc2c1nnn2CCc1ccccc1)c1ccccc1` (centres undefined) displayed a Ki of 2.2 µM.

Molecule `CC1CCCC(Nc2ncnc3c2nnn3Cc2ccccc2Cl)C1` (centres undefined) returned a Ki of 0.102 µM.

Take `O=[N+]([O-])c1cccc(Nc2ncnc3c2nnn3CCc2ccccc2)c1`: the Ki is 2.25 µM.

`CC1CCCC(Nc2ncnc3c2nnn3Cc2ccccc2)C1` (centres undefined) registered a Ki of 0.77 µM.

`O=[N+]([O-])c1ccc(CCNc2ncnc3c2nnn3Cc2ccccc2Cl)cc1` returned a Ki above 10 µM.

`Clc1cccc(Nc2ncnc3c2nnn3Cc2ccccc2)c1` gave a Ki of 0.463 µM. This lies in the sub-micromolar range.

`c1ccc(Cn2nnc3c(NC4CCCCC4)ncnc32)cc1` came in with a Ki of 0.121 µM. Compared with the last molecule, the Ki is about 3.8-fold lower.

Molecule `CC(Nc1ncnc2c1nnn2Cc1ccccc1)c1ccccc1` (centres undefined) displayed a Ki of 0.438 µM.

Molecule `CC(Cc1ccccc1)Nc1ncnc2c1nnn2Cc1ccccc1Cl` (centres undefined) showed a Ki of 0.073 µM.

In turn, `CC(Nc1ncnc2c1nnn2Cc1ccccc1Cl)c1ccccc1` (centres undefined) had a Ki of 0.468 µM.

On to `Clc1cccc(Nc2ncnc3c2nnn3Cc2ccccc2Cl)c1`, for which the Ki was 1.83 µM.

As to `O=[N+]([O-])c1cccc(Nc2ncnc3c2nnn3Cc2ccccc2Cl)c1`, the Ki was found to be 3.3 µM.
